# US8232406B2, “c-MET protein kinase inhibitors” (Vertex Pharmaceuticals Incorporated, priority 2006, dated 2012)
# Biological target: c-MET (Homo sapiens, UniProt P08581)
# Test: Ki determination for the inhibition of c-MET (standard radiometric 33P-ATP kinase assay, polyE4Y substrate)
# Format: biochemical
# Settings: 1.0 nM c-Met, 35 μM ATP, 0.5 mg/mL polyE4Y, 20 min; competitive tight-binding fit
# Description: Ki Determination for the Inhibition of c-MET
# Compounds of the invention were screened for their ability to inhibit c-MET kinase activity using a standard radiometric assay. Briefly, in this kinase assay the transfer of the terminal ^33P-phosphate in ^33P-ATP to substrate polyE4Y is interrogated. The assay was carried out in 96-well plates to a final volume of 100 μL per well containing 1.0 nM c-Met, 100 mM HEPES (pH 7.5), 10 mM MgCl2, 25 mM NaCl, 0.01% BSA, 1 mM DTT, 0.5 mg/mL polyE4Y, and 35 μM ATP. Accordingly, compounds of the invention were dissolved in DMSO to make 10 mM initial stock solutions. Serial dilutions in DMSO were then made to obtain the final solutions for the assay. A 1.5 μL aliquot of DMSO or inhibitor in DMSO was added to each well. The reaction was initiated by the addition of ^33P-ATP and polyE4Y (obtained from Sigma). After 20 min, the reaction was quenched with 50 μL of 30% trichloroacetic acid (TCA) containing 4 mM ATP. The reaction mixture was transferred to the 0.66 mm GF filter plates (Corning) and washed three times with 5% TCA. Following the addition of 50 μL of Ultimate Gold™ high efficiency scintillant (Packard Bioscience), the samples were counted in a Packard TopCount NXT Microplate Scintillation and Luminescence Counter (Packard BioScience). The Ki values were calculated using Microsoft Excel Solver macros to fit the data to the kinetic model for competitive tight-binding inhibition.
# c-MET, sequence (P08581 25-1390): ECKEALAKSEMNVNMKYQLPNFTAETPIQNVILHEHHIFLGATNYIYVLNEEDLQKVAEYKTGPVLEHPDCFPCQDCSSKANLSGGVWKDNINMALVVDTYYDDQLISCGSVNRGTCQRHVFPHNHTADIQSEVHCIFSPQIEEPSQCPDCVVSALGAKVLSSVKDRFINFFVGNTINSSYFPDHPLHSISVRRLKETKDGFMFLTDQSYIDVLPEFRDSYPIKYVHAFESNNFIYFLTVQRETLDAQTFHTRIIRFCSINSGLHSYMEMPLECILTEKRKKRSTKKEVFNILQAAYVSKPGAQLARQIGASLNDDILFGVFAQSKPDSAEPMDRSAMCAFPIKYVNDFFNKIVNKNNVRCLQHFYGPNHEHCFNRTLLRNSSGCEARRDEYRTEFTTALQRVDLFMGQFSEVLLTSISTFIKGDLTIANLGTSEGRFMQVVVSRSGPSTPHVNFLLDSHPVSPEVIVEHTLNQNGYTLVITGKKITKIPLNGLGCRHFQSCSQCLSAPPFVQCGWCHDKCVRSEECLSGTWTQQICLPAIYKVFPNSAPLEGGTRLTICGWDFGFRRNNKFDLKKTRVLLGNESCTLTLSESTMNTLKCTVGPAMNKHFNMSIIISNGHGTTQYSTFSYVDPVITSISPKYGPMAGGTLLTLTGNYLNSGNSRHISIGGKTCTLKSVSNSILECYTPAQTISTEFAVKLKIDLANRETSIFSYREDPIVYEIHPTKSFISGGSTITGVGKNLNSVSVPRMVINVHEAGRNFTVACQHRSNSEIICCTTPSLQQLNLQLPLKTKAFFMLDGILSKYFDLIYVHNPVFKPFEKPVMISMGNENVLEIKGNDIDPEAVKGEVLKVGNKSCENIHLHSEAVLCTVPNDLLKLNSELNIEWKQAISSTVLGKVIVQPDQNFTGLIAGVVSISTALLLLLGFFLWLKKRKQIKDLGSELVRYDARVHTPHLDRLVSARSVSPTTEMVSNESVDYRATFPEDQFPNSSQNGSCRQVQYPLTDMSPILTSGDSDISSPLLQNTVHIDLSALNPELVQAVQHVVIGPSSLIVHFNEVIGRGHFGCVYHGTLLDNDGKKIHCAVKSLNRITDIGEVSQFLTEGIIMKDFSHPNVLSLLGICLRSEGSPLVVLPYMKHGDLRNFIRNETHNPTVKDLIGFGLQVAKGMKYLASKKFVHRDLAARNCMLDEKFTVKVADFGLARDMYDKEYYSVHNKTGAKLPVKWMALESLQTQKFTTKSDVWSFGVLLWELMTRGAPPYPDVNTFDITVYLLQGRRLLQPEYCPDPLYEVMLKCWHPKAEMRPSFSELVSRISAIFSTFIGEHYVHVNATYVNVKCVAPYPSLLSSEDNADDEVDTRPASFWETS
row,Ki,Structure (SMILES)
1,≤ 100 nM,CC(c1ccc(-c2cnc(N)c(-c3nnnn3-c3cccc(F)c3F)c2)cc1)N1CCCC1 (stereo not shown) [I-A-180]
2,≤ 100 nM,Nc1ncc(-c2ccc(CCN3CCCC3)cc2)cc1-c1nnnn1-c1cccc(F)c1F [I-A-181]
3,≤ 100 nM,CC(=O)N1CCc2cc(-c3cnc(N)c(-c4nnnn4-c4cccc(F)c4F)c3)ccc21 [I-A-182]
4,≤ 100 nM,NC(=O)Nc1ccc(-c2cnc(N)c(-c3nnnn3-c3cccc(F)c3F)c2)cc1 [I-A-183]
5,≤ 100 nM,Nc1ncc(-c2ccc(NC(=O)CN3CCCC3)cc2)cc1-c1nnnn1-c1cccc(F)c1F [I-A-184]
6,100 to 1000 nM,Nc1ncc(-c2cc(C(=O)O)cs2)cc1-c1nnnn1-c1cccc(F)c1F [I-A-185]
7,≤ 100 nM,Nc1ncc(-c2ccc(CN3CCCC3)s2)cc1-c1nnnn1-c1cccc(F)c1F [I-A-186]
8,≤ 100 nM,Nc1ncc(-c2ccc(S(N)(=O)=O)s2)cc1-c1nnnn1-c1cccc(F)c1F [I-A-187]
9,≤ 100 nM,Nc1ncc(-c2ccc3c(c2)CC(=O)N3)cc1-c1nnnn1-c1cccc(F)c1F [I-A-188]
10,≤ 100 nM,Nc1ncc(-c2ccc(N3CCCC3=O)cc2)cc1-c1nnnn1-c1cccc(F)c1F [I-A-189]
11,≤ 100 nM,Nc1ncc(-c2ccc3c(c2)NC(=O)C3)cc1-c1nnnn1-c1cccc(F)c1F [I-A-190]
12,≤ 100 nM,CN(C)CC(=O)Nc1ccc(-c2cnc(N)c(-c3nnnn3-c3cccc(F)c3F)c2)cc1 [I-A-191]
13,≤ 100 nM,CS(=O)(=O)NCc1ccc(-c2cnc(N)c(-c3nnnn3-c3cccc(F)c3F)c2)cc1 [I-A-192]
14,≤ 100 nM,CC(C)C(=O)Nc1ccc(-c2cnc(N)c(-c3nnnn3-c3cccc(F)c3F)c2)cc1 [I-A-193]
15,100 to 1000 nM,CC(C)(C)C(=O)Nc1ccc(-c2cnc(N)c(-c3nnnn3-c3cccc(F)c3F)c2)cc1 [I-A-194]
16,100 to 1000 nM,CCCC(=O)Nc1ccc(-c2cnc(N)c(-c3nnnn3-c3cccc(F)c3F)c2)cc1 [I-A-195]
17,100 to 1000 nM,CCOC(=O)CC(=O)Nc1ccc(-c2cnc(N)c(-c3nnnn3-c3cccc(F)c3F)c2)cc1 [I-A-196]

row,Ki,Structure (SMILES)
1,≤ 100 nM,CCC(CC)C(=O)Nc1ccc(-c2cnc(N)c(-c3nnnn3-c3cccc(F)c3F)c2)cc1 [I-A-197]
2,≤ 100 nM,CC(C)(C)CC(=O)Nc1ccc(-c2cnc(N)c(-c3nnnn3-c3cccc(F)c3F)c2)cc1 [I-A-199]
3,≤ 100 nM,CNCc1ccc(-c2cnc(N)c(-c3nnnn3-c3cccc(F)c3F)c2)cc1 [I-A-200]
4,≤ 100 nM,Nc1cccc(-c2cnc(N)c(-c3nnnn3-c3cccc(F)c3F)c2)c1 [I-A-201]
5,≤ 100 nM,NCc1ccc(-c2cnc(N)c(-c3nnnn3-c3cccc(F)c3F)c2)cc1 [I-A-202]
6,≤ 100 nM,Nc1ncc(-c2ccc(CN3CCCC3=O)cc2)cc1-c1nnnn1-c1cccc(F)c1F [I-A-203]
7,≤ 100 nM,Nc1ncc(-c2ccc3c(c2)C(=O)C(=O)N3)cc1-c1nnnn1-c1cccc(F)c1F [I-A-204]
8,100 to 1000 nM,Nc1ncc(-c2ccc(C(N)C(=O)O)cc2)cc1-c1nnnn1-c1cccc(F)c1F (stereo not shown) [I-A-205]
9,≤ 100 nM,COC(=O)C(N)c1ccc(-c2cnc(N)c(-c3nnnn3-c3cccc(F)c3F)c2)cc1 (stereo not shown) [I-A-206]
10,≤ 100 nM,COC(=O)C(C)(C)c1ccc(-c2cnc(N)c(-c3nnnn3-c3cccc(F)c3F)c2)cc1 [I-A-207]
11,≤ 100 nM,COC(=O)C(c1ccc(-c2cnc(N)c(-c3nnnn3-c3cccc(F)c3F)c2)cc1)N1CCCC1 (stereo not shown) [I-A-208]
12,≤ 100 nM,CC1CCCN1Cc1ccc(-c2cnc(N)c(-c3nnnn3-c3cccc(F)c3F)c2)cc1 (stereo not shown) [I-A-209]
13,≤ 100 nM,CC1CCC(C)N1Cc1ccc(-c2cnc(N)c(-c3nnnn3-c3cccc(F)c3F)c2)cc1 (stereo not shown) [I-A-210]
14,≤ 100 nM,C[C@@H](c1ccc(-c2cnc(N)c(-c3nnnn3-c3cccc(F)c3F)c2)cc1)N1CCCC1 [I-A-211]
15,≤ 100 nM,C[C@H](c1ccc(-c2cnc(N)c(-c3nnnn3-c3cccc(F)c3F)c2)cc1)N1CCCC1 [I-A-212]
16,≤ 100 nM,Nc1ncc(-c2ccc(CN3CCCC3)c(F)c2)cc1-c1nnnn1-c1cccc(F)c1F [I-A-213]
17,100 to 1000 nM,Nc1ncc(-c2cccc(C(F)(F)F)c2)cc1-c1nnnn1-c1cccc(F)c1F [I-A-215]
